Source: US10329243B2, “Biphenyl derivative and uses thereof” (XI'AN LIBANG PHARMACEUTICAL CO., LTD, priority 2015, dated 2019)

How the values were obtained:
Assay type in all cases: in vivo, SD rats
[1] = system: TNF-α; assay: Determination of TNF-α in brain tissue homogenate, cerebral ischemic reperfusion MCAO model
Procedure: (§1) Rats were intraperitoneally injected with 10% chloral hydrate 350 mg/kg after anesthesia and opened up at the center of the neck in accordance with the Zea Longa modified method. The right common carotid artery was separated, and the right external carotid artery branches was ligated. A small opening was made at the distal end of the external carotid artery, and a previously prepared thread was inserted through the common carotid artery and the external carotid artery bifurcation into the internal carotid artery, till the anterior end of the middle cerebral artery, with an immersed depth of 18 to 19 mm. The thread was then secured, and the wound was sutured layer by layer. After the operation, the rats were placed in a clean incubator to wake up. […] The sham operation group, the ischemic reperfusion group, and the Example groups were prepared strictly according to the requirements of the cerebral ischemic reperfusion model, while in the sham operation group the thread was put only into the external carotid artery. The animals were allowed to eat and drink freely after waking up. After 2 h, the thread was pulled out to achieve reperfusion. The sham operation group, the ischemic reperfusion group, and the Example groups were administered intravenously the aqueous solution of the biphenyl derivatives in PEG400 at 40 mg/kg (40 mg/kg means that 40 mg of the test compound per kg of the body weight of rats) 30 min before reperfusion and 12 h after reperfusion, respectively. The sham operation group and the ischemic reperfusion group were injected with the same amount of blank PEG400 aqueous solution at the same time point.
(§2) 24 hours after reperfusion, 8 rats in each group were sacrificed by decapitation, the brain was removed, rinsed with PBS (pH 7.4) at −20° i for 20 min, evenly sliced (with a thickness of 2 mm), stained in a 2% TTC solution at 37°% in the dark for 30 min, fixed in 10% formalin for 24 h, and photographs were taken to analyze the infarct volume. A mixture of femoral arterial and venous blood was drawn from another 8 rats in each group under anesthesia, placed in a low temperature centrifuge at 4° C., centrifuged at 3500 r/min for 20 min, and the supernatant was stored in a refrigerator at −20° C. ready for SOD and MDA detection. After the blood was drawn, a perfusion needle was insert through the apex to the ascending aorta, and saline at 4° C. was rapid infused until the effluent became clear, followed by 4% paraformaldehyde phosphate buffer perfusion for fixation; the brain was removed by craniotomy, and brain tissues 2 mm in front of and behind the optic chiasma were taken and fixed, dehydrated, rendered transparent, impregnated in wax, and embedded. Brain continuous coronary tissue pathological sections were consecutively cut for later use. The remaining 8 rats in each group were sacrificed, brains were removed, the ischemic brain hemispheres were immediately taken on an ice tray, and 10% brain tissue homogenate was prepared for the detection of IL-1β and TNF-α.
(§3) Brain tissue homogenate was hypothermally centrifuged at 3000 rpm for 15 min, the supernatant was taken, and IL-1β and TNF-α were determined in strict accordance with instructions of the kits.

[2] = system: IL-1β; assay: Determination of IL-1β in brain tissue homogenate, permanent cerebral ischemia model
Procedure: as §1, with “the permanent cerebral ischemia model” for “the ischemic reperfusion”, “up.” for “up. After 2 h, the thread was pulled out to achieve reperfusion.”, “before insertion of thread” for “before reperfusion”, “after embolism,” for “after reperfusion,”
as §2, with “the embolism,” for “reperfusion,”, “−20°i” for “−20° i”
as §3

[3] = system: TNF-α; assay: Determination of TNF-α in brain tissue homogenate, permanent cerebral ischemia model
Procedure: as §1, with “the permanent cerebral ischemia model” for “the ischemic reperfusion”, “up.” for “up. After 2 h, the thread was pulled out to achieve reperfusion.”, “before insertion of thread” for “before reperfusion”, “after embolism,” for “after reperfusion,”
as §2, with “the embolism,” for “reperfusion,”, “−20°i” for “−20° i”
as §3

[4] = system: SOD; assay: SOD determination, cerebral ischemic reperfusion MCAO model
Procedure: as §1, §2
(§4) SOD and MDA were determined strictly in accordance with instructions of the kit.

[5] = system: IL-1β; assay: Determination of IL-1β in brain tissue homogenate, cerebral ischemic reperfusion MCAO model
Procedure: as §1, §2, §3

[6] = system: SOD; assay: SOD determination, permanent cerebral ischemia model
Procedure: as §1, with “the permanent cerebral ischemia model” for “the ischemic reperfusion”, “up.” for “up. After 2 h, the thread was pulled out to achieve reperfusion.”, “before insertion of thread” for “before reperfusion”, “after embolism,” for “after reperfusion,”
as §2, with “the embolism,” for “reperfusion,”, “−20°i” for “−20° i”
as §4

[7] = system: rats with cerebral ischemic reperfusion injury; assay: Relative infarct volume (TTC, imageJ), cerebral ischemic reperfusion MCAO model
Procedure: as §1, §2
The infarct area in each brain section was analyzed and quantified by the imageJ image software, and the ratio of cerebral infarction volume in the overall brain volume was calculated.

[8] = ischemic reperfusion MCAO rats, 40 mg/kg intravenously, 10% brain tissue homogenate, 24 h after reperfusion
[9] = permanent cerebral ischemia model rats, 40 mg/kg intravenously, 10% brain tissue homogenate, 24 h after the embolism
[10] = ischemic reperfusion MCAO rats, 40 mg/kg intravenously 30 min before and 12 h after reperfusion, serum, 24 h after reperfusion
[11] = permanent cerebral ischemia model rats, 40 mg/kg intravenously, serum, 24 h after the embolism
[12] = ischemic reperfusion MCAO rats, 40 mg/kg intravenously 30 min before and 12 h after reperfusion, 24 h after reperfusion
[13] = ischemic reperfusion MCAO rats, 40 mg/kg intravenously, 10% brain tissue homogenate, 24 h after reperfusion, 40 mg/kg
[14] = permanent cerebral ischemia model rats, 40 mg/kg intravenously, 10% brain tissue homogenate, 24 h after the embolism, 40 mg/kg
[15] = ischemic reperfusion rat model, edaravone 3 mg/kg
[16] = permanent cerebral ischemia model rats, edaravone 3 mg/kg

Compound	TNF-α content [1, 8] [ng/mL]	IL-1β content [2, 9] [ng/mL]	TNF-α content [3, 9] [ng/mL]	SOD ACTIVITY (U/mL) [4, 10] [U/mL]	IL-1β content [5, 8] [ng/mL]	SOD ACTIVITY (U/mL) [6, 11] [U/mL]	Relative Brain infarction volume (%) [7, 12] [%]	also measured
3,3′,5,5′-tetraisopropylbiphenyl-4,4′-bis(oxymethylene phosphate) [Example 3 group]	–	–	–	–	–	–	–	TNF-α content ([1]; rat, in vivo, iv, 40 mg/kg): 4.26 ± 0.54 ng/mL; IL-1β content ([2]; rat, in vivo, iv, 40 mg/kg): 0.67 ± 0.08 ng/mL; TNF-α content ([3]; rat, in vivo, iv, 40 mg/kg): 4.45 ± 0.91 ng/mL; SOD ACTIVITY (U/mL) ([4]; rat, in vivo, iv, 40 mg/kg): 93.15 ± 3.05 U/mL; IL-1β content ([5]; rat, in vivo, iv, 40 mg/kg): 0.66 ± 0.05 ng/mL; SOD ACTIVITY (U/mL) ([6]; rat, in vivo, iv, 40 mg/kg): 93.61 ± 2.13 U/mL; Relative Brain infarction volume (%) ([7]; rat, in vivo, iv, 40 mg/kg): 25.41 ± 3.59 %
CC(C)c1cc(-c2cc(C(C)C)c(Cl)c(C(C)C)c2)cc(C(C)C)c1O [Example 9 group, 4-chloro-4′-hydroxy-3,3′,5,5′-tetraisopropylbiphenyl]	–	–	–	–	–	–	–	TNF-α content ([1]; rat, in vivo, iv, 40 mg/kg): 5.02 ± 0.39 ng/mL; IL-1β content ([2]; rat, in vivo, iv, 40 mg/kg): 0.62 ± 0.12 ng/mL; TNF-α content ([3]; rat, in vivo, iv, 40 mg/kg): 5.17 ± 0.40 ng/mL; SOD ACTIVITY (U/mL) ([4]; rat, in vivo, iv, 40 mg/kg): 92.26 ± 2.96 U/mL; IL-1β content ([5]; rat, in vivo, iv, 40 mg/kg): 0.63 ± 0.07 ng/mL; SOD ACTIVITY (U/mL) ([6]; rat, in vivo, iv, 40 mg/kg): 93.62 ± 2.73 U/mL; Relative Brain infarction volume (%) ([7]; rat, in vivo, iv, 40 mg/kg): 24.74 ± 6.13 %
CC(=O)OC(C)Oc1c(C(C)C)cc(-c2cc(C(C)C)c(O)c(C(C)C)c2)cc1C(C)C (centres unmarked) [Example 12 group, Ethyl 1-(4′-hydroxy-3,3′,5,5′-tetraisopropylbiphenyl-4-oxo)acetate]	4.95 ± 0.67	0.75 ± 0.04	5.38 ± 0.59	92.39 ± 5.27	0.74 ± 0.06	91.25 ± 3.84	25.54 ± 3.29	–
CC(=O)Oc1c(C(C)C)cc(-c2cc(C(C)C)c(O)c(C(C)C)c2)cc1C(C)C [Example 1 group, 4′-hydroxy-3,3′,5,5′-tetraisopropylbiphenyl-4-acetate]	–	–	–	–	–	–	–	TNF-α content [1, 13]: 4.11 ± 0.72 ng/mL; IL-1β content [2, 14]: 0.64 ± 0.09 ng/mL; TNF-α content [3, 14]: 4.25 ± 0.66 ng/mL; SOD ACTIVITY (U/mL) ([4]; ischemic reperfusion MCAO rats, 40 mg/kg intravenously 30 min before and 12 h after reperfusion, serum, 24 h after reperfusion, 40 mg/kg): 96.78 ± 2.94 U/mL; IL-1β content [5, 13]: 0.63 ± 0.12 ng/mL; SOD ACTIVITY (U/mL) ([6]; permanent cerebral ischemia model rats, 40 mg/kg intravenously, serum, 24 h after the embolism, 40 mg/kg): 97.36 ± 4.51 U/mL; Relative Brain infarction volume (%) ([7]; ischemic reperfusion MCAO rats, 40 mg/kg intravenously 30 min before and 12 h after reperfusion, 24 h after reperfusion, 40 mg/kg): 18.71 ± 4.69 %
CC(C)c1cc(-c2cc(C(C)C)c(OC=O)c(C(C)C)c2)cc(C(C)C)c1O [Example 10 group]	4.68 ± 0.61	0.66 ± 0.06	5.05 ± 0.54	95.16 ± 3.88	0.67 ± 0.05	94.08 ± 2.83	23.91 ± 5.44	–
CCCc1cc(-c2cc(CCC)c(O)c(CCC)c2)cc(CCC)c1O [Example 7 group, 4,4′-dihydroxy-3,3′,5,5′-tetrapropylbiphenyl]	4.32 ± 0.61	0.57 ± 0.08	4.26 ± 0.40	94.51 ± 2.19	0.63 ± 0.08	98.28 ± 3.18	19.29 ± 3.54	–
CC(C)c1cc(-c2cc(C(C)C)c(OC(=O)C(N)C(C)C)c(C(C)C)c2)cc(C(C)C)c1O (centres unmarked) [Example 11 group, 4′-hydroxy-3,3′,5,5′-tetraisopropylbiphenyl-2-amino-3-methylbutyrate]	5.31 ± 0.51	0.76 ± 0.04	5.16 ± 0.43	96.71 ± 4.29	0.71 ± 0.07	95.76 ± 3.93	23.59 ± 4.11	–
CCCc1cc(-c2cc(CCC)c(O)c(C(C)C)c2)cc(C(C)C)c1O [Example 6 group, 4,4′-dihydroxy-3,3′-diisopropyl-5,5′-dipropylbiphenyl]	4.16 ± 0.44	0.55 ± 0.05	4.99 ± 0.53	96.89 ± 3.49	0.64 ± 0.03	97.21 ± 4.36	19.35 ± 4.02	–
CC1=NN(c2ccccc2)C(=O)C1 [Edaravone injection, edaravone, reference compound]	–	–	–	–	–	–	–	TNF-α content [1, 15]: 5.14 ± 0.44 ng/mL; IL-1β content [2, 16]: 0.76 ± 0.04 ng/mL; TNF-α content [3, 16]: 5.53 ± 0.54 ng/mL; SOD ACTIVITY (U/mL) [4, 15]: 88.16 ± 3.99 U/mL; IL-1β content [5, 15]: 0.75 ± 0.05 ng/mL; SOD ACTIVITY (U/mL) [6, 16]: 90.62 ± 3.81 U/mL; Relative Brain infarction volume (%) [7, 15]: 29.31 ± 3.95 %
CC(C)c1cc(-c2cc(C(C)C)c(OC(=O)CCC(=O)O)c(C(C)C)c2)cc(C(C)C)c1O [Example 5 group, [4-(4′-hydroxy-3,3′,5,5′-tetraisopropylbiphenyl)oxy]-4-carbonyl butyric acid]	5.01 ± 0.59	0.72 ± 0.11	5.23 ± 0.48	95.01 ± 3.22	0.74 ± 0.09	95.31 ± 4.11	23.55 ± 5.67	–
CC(=O)Oc1c(C(C)C)cc(-c2cc(C(C)C)c(OC(C)=O)c(C(C)C)c2)cc1C(C)C [Example 2 group, 3,3′,5,5′-tetraisopropylbiphenyl-4′-diacetate]	5.03 ± 0.59	0.78 ± 0.12	5.15 ± 0.88	94.46 ± 2.19	0.79 ± 0.11	93.28 ± 3.49	23.22 ± 3.12	–
